melting point: 134 to 137 °C
SMILES: COC(=O)c1cccc(/C=N/NC(=O)c2ccc(C)cc2)c1O [I-2]

From patent publication US20020032178A1 (priority 2000, published 2002)
